Calls of active or inactive are those of the source.
Columns and labels:
[1] = target: Photoreceptor-specific nuclear receptor (Homo sapiens, UniProt Q9Y5X4); type: functional;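 note: potency for compounds that break the NR2E3 corepressor complex and count as activators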
[2] = target: Perilipin-1/ABHD5 (Homo sapiens, UniProt O60240+Q8WTS1); assay: Luminescence-based biochemical high throughput dose response assay for inhibitors of the interaction of the lipase co-activator protein, abhydrolase domain containing 5 (ABHD5) with perilipin-1 (PLIN1) (2K validation set). [Related pubchem assays (depositor defined):AID493027, AID493057]
[3] = target: T1, Replicative DNA helicase DnaB (Mycobacterium tuberculosis, UniProt P9WMR3); assay: DnaB intein splicing inhibitors, dose response, biochemical, cell-free fluorescence (AID 449749); type: functional
T1 sequence (P9WMR3 whole entry): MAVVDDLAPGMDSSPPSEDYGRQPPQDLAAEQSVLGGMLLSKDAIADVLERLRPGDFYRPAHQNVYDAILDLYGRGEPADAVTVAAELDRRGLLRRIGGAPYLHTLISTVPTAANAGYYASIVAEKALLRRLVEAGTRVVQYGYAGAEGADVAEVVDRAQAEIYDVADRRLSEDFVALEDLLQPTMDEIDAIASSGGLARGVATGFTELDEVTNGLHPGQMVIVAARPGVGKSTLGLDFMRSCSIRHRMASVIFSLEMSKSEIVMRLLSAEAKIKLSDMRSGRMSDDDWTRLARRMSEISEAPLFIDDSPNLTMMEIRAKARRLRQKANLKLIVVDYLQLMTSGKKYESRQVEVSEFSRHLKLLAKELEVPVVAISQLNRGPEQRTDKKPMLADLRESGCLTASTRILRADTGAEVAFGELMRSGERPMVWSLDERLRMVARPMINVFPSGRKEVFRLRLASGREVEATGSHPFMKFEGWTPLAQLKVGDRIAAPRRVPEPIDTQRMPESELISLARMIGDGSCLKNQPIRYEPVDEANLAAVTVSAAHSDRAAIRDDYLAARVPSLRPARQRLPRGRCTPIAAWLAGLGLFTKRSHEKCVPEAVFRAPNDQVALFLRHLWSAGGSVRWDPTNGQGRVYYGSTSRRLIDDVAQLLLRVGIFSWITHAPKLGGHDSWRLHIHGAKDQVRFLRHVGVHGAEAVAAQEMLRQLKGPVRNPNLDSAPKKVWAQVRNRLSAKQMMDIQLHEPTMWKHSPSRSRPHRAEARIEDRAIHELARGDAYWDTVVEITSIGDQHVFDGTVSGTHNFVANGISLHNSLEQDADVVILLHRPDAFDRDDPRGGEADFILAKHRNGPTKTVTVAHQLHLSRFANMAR

[4] = target: T2, Protein RecA (Mycobacterium tuberculosis, UniProt P9WHJ3); assay: Fluorescence Cell-Free Homogeneous Dose Retest to Identify Inhibitors of RecA-Intein Splicing Activity. [Related pubchem assays (depositor defined):AID2097, AID2223, AID489010, AID492950]; type: functional
T2 sequence (P9WHJ3 whole entry): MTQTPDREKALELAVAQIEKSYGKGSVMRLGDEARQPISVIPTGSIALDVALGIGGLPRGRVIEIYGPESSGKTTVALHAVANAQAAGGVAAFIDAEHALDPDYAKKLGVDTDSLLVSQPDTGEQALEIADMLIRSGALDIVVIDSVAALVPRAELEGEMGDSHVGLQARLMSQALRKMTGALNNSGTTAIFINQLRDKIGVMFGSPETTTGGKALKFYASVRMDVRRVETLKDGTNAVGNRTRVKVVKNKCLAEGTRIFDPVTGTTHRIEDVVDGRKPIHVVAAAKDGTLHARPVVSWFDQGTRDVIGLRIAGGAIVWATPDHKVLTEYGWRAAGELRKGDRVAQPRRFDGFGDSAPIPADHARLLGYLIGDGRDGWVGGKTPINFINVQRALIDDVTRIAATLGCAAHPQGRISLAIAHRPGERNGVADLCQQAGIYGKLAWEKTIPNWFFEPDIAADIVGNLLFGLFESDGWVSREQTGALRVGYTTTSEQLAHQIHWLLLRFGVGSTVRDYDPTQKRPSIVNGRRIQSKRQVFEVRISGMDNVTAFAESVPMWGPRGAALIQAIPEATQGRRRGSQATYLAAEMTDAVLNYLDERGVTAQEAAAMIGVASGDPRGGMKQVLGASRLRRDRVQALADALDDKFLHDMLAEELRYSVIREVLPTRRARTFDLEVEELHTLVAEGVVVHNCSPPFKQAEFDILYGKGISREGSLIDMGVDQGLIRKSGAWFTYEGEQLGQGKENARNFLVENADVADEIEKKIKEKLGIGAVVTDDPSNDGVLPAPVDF

[5] = HeLa 2N DNA content increase, dose response, cell-based, IC50 (AID 1117349); type: functional
[6] = Glucagon-like peptide 1 release potency, NCI-H716 cell line, dose-response, half-maximal inhibitory concentration (AID 1117344); type: functional, cell-based
[7] = target: 5'-AMP-activated protein kinase catalytic subunit alpha-1 (Homo sapiens, UniProt Q13131); type: functional
[8] = target: Tyrosine-protein kinase SYK (Homo sapiens, UniProt P43405); type: functional
[9] = target: Serine/threonine-protein kinase 17A (Homo sapiens, UniProt Q9UEE5); type: functional
[10] = target: SRSF protein kinase 1 (Homo sapiens, UniProt Q96SB4); type: functional;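 note: measured as one member of a kinome-wide kinase profiling panel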
[11] = target: Tyrosine-protein kinase JAK3 (Homo sapiens, UniProt P52333); type: functional
[12] = target: Proto-oncogene tyrosine-protein kinase ROS (Homo sapiens, UniProt P08922); type: functional;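 note: ROS1 tested as one member of a kinome-wide kinase panel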
[13] = target: Non-receptor tyrosine-protein kinase TYK2 (Homo sapiens, UniProt P29597); type: functional
[14] = target: Glycogen synthase kinase-3 alpha (Homo sapiens, UniProt P49840); type: functional;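 note: GSK3A result taken from a broad kinome-wide kinase panel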
[15] = target: Mitogen-activated protein kinase kinase kinase kinase 2 (Homo sapiens, UniProt Q12851); type: functional;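 note: measured as one member of a kinome-wide kinase panel, with MAP4K2 as the panel entry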
[16] = target: G protein-coupled receptor kinase 5 (Homo sapiens, UniProt P34947); assay: Navigating the Kinome. Panel member name: GPRK5; type: functional
[17] = target: Calcium/calmodulin-dependent protein kinase type 1 (Homo sapiens, UniProt Q14012); type: functional
[18] = target: Homeodomain-interacting protein kinase 4 (Homo sapiens, UniProt Q8NE63); type: functional
[19] = target: Cyclin-dependent kinase 1 (Homo sapiens, UniProt P06493); type: functional;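 note: Kinome-wide panel profiling, with the target listed as panel member CDC2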
[20] = target: 3-phosphoinositide-dependent protein kinase 1 (Homo sapiens, UniProt O15530); type: functional;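 note: value comes from the Navigating the Kinome panel, PDPK1 member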
[21] = target: cAMP-dependent protein kinase catalytic subunit alpha (Homo sapiens, UniProt P17612); type: functional

Sequence of Photoreceptor-specific nuclear receptor (Q9Y5X4 whole entry, the tested form may be a part): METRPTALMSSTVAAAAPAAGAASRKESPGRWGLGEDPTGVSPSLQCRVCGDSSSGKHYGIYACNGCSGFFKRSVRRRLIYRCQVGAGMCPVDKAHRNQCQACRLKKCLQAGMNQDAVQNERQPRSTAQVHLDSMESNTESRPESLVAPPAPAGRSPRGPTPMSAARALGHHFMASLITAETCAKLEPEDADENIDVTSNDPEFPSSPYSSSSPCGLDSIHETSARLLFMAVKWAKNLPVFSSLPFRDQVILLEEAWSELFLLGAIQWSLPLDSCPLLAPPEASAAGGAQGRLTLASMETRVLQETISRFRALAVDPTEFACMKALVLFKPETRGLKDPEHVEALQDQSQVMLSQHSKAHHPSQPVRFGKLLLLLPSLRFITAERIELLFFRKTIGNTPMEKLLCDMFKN
Sequence of Perilipin-1/ABHD5 (Q8WTS1 whole entry, the tested form may be a part): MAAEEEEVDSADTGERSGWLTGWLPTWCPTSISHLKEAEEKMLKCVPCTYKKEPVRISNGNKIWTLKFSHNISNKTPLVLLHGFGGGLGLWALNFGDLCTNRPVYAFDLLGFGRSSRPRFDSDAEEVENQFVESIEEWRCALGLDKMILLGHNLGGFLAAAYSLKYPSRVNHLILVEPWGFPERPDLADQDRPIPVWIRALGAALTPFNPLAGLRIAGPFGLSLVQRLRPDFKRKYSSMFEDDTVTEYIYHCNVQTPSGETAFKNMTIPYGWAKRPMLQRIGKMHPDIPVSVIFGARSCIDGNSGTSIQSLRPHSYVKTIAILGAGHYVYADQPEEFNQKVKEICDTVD
Sequence of Perilipin-1/ABHD5 (O60240 whole entry, the tested form may be a part): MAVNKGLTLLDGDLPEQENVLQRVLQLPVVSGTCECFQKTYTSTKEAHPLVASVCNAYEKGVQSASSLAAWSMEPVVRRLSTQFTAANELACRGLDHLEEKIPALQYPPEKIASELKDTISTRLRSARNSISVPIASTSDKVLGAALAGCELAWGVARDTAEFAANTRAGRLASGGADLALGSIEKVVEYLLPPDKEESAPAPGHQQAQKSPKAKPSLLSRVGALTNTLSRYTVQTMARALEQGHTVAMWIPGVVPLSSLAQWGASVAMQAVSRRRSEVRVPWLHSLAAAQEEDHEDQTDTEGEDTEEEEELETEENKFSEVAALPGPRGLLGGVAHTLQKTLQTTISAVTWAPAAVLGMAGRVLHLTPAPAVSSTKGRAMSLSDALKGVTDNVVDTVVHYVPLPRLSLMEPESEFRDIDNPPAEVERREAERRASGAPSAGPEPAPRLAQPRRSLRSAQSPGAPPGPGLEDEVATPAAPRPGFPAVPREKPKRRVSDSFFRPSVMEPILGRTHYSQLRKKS
Sequence of Proto-oncogene tyrosine-protein kinase ROS (P08922 whole entry): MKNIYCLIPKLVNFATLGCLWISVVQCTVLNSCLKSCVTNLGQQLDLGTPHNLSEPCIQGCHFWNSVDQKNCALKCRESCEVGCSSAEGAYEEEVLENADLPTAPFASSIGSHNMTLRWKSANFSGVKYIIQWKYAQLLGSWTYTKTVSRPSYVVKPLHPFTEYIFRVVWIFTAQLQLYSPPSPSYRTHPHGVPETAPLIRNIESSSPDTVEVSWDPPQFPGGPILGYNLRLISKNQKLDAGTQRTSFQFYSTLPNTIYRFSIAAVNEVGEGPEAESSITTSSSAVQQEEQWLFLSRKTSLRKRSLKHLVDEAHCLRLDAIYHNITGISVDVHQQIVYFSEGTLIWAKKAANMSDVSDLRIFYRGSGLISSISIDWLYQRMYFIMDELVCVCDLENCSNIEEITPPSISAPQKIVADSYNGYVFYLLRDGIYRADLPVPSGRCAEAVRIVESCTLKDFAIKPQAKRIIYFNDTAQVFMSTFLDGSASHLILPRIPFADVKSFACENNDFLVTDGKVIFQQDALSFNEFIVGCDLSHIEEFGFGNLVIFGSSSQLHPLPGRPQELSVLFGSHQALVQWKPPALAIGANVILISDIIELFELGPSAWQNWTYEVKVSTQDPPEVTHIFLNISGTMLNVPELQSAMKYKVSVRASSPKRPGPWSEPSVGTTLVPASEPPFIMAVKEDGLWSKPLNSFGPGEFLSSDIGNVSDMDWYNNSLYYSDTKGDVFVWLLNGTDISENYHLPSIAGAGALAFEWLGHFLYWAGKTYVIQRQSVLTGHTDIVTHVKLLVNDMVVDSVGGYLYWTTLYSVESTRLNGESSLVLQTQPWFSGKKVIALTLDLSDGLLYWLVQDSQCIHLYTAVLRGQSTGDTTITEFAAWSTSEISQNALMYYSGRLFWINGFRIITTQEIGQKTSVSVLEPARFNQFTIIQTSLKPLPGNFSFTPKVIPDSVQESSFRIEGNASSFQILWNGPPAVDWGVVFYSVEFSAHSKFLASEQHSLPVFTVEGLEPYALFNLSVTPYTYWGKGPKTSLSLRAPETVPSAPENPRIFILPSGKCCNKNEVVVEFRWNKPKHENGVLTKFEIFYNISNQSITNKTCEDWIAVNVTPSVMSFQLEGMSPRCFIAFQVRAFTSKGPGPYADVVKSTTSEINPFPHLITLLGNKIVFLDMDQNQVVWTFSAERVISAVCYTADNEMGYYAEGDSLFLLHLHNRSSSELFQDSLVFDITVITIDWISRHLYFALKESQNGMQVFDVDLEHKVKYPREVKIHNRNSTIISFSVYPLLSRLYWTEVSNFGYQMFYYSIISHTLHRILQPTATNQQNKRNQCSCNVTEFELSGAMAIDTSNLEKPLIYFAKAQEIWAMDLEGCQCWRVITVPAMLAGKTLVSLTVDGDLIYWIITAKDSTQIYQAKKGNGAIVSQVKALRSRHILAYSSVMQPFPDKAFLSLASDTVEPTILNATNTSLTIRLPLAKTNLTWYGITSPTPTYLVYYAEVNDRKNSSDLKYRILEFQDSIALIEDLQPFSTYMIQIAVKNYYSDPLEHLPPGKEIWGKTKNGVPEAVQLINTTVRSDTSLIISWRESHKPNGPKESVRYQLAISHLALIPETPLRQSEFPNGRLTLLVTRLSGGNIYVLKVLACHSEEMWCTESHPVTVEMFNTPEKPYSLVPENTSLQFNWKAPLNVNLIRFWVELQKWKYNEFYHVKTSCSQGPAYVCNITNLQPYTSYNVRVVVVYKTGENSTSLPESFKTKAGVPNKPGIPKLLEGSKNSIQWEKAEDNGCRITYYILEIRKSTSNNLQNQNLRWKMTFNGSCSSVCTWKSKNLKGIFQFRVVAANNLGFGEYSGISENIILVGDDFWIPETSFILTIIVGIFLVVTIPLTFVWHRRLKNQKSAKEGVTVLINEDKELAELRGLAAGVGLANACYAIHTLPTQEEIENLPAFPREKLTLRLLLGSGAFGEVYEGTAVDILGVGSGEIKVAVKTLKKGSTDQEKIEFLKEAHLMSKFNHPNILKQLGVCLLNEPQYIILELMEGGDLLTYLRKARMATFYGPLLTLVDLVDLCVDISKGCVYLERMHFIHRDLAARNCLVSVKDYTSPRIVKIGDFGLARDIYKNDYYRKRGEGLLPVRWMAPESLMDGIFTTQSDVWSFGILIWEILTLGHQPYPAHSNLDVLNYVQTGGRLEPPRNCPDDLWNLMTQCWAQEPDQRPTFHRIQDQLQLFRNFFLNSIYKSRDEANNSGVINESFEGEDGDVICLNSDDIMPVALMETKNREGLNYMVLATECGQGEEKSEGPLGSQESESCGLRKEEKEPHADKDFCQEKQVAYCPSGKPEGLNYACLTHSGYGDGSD
Sequence of Tyrosine-protein kinase JAK3 (P52333 whole entry): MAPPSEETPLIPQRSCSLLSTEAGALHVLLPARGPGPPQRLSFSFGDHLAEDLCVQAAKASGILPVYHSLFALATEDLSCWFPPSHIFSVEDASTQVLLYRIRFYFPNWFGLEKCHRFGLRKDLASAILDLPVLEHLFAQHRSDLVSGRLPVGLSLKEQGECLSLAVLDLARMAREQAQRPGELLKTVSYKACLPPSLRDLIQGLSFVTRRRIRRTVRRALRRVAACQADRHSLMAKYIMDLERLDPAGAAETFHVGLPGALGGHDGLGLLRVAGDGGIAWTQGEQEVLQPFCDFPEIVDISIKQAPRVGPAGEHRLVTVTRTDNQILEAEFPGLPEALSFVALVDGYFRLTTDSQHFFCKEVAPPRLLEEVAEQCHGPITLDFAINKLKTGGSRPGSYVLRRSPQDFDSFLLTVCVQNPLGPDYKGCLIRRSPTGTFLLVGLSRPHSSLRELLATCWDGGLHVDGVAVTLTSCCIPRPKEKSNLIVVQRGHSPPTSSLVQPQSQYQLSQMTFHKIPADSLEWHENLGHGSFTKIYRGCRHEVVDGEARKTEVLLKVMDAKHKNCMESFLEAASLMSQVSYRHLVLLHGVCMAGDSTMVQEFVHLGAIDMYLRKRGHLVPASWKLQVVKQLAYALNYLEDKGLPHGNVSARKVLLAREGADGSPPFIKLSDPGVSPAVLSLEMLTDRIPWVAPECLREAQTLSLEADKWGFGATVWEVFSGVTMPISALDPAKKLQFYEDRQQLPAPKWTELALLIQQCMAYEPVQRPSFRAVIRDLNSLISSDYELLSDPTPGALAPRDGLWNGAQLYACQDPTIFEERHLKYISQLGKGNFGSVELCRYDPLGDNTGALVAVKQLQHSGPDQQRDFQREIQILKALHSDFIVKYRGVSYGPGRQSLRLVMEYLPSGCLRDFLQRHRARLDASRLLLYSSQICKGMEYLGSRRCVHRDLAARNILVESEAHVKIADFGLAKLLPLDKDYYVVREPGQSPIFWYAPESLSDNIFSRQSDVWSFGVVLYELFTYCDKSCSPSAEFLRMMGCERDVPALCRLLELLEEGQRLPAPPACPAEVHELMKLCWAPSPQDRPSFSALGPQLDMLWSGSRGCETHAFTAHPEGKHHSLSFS
Sequence of Cyclin-dependent kinase 1 (P06493 whole entry): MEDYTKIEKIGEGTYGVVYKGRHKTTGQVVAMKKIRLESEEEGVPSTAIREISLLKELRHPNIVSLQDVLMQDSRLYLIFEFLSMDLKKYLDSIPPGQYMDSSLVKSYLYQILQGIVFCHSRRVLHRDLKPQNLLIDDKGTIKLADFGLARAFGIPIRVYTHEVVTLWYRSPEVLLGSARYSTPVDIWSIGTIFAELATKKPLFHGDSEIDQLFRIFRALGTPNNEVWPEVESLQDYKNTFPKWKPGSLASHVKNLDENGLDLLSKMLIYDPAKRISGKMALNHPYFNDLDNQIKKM

For `CCc1oc2ccccc2c1C(=O)c1cc(Br)c(O)c(Br)c1` [BENZBROMARONE], the IC50 [1] was > 39.8 µM (not active), the IC50 [2] was 15 µM (inactive) and the AC50 [3] was 2.75 µM (active). For the same molecule, the EC50 [4] was 11.5 µM (active), the IC50 [5] was > 10 µM (inactive) and the IC50 [6] was > 40 µM (inactive).

For `N#Cc1ccc2[nH]c(O)c(-c3ccc(CN4CCOCC4)cn3)c2c1` [AZD-1080], the Ki [7] was > 2.51 µM (inactive), the Ki [8] was > 1.58 µM (inactive) and the Ki [9] was 0.501 µM (active). The Ki [10] was > 7.94 µM (inactive), the Ki [11] was > 3.98 µM (inactive) and the Ki [12] was > 2 µM (inactive). The Ki [13] was > 2 µM (inactive), the Ki [14] was > 2.51 µM (inactive) and the Ki [15] was > 3.98 µM (inactive). For the same molecule, the Ki [16] was > 3.98 µM (inactive), the Ki [17] was > 6.31 µM (inactive) and the Ki [18] was > 7.94 µM (inactive). The Ki [19] was 2 µM (active), the Ki [20] was > 3.98 µM (inactive) and the Ki [21] was > 3.16 µM (inactive).

In the case of `O=C1C=C(N2CCOCC2)c2ccccc2C1=O`, the IC50 [1] is reported as > 39.8 µM (not active), the AC50 [3] is reported as 1.05 µM (active) and the EC50 [4] is reported as 0.15 µM (active).

From ChEMBL document CHEMBL1201862, “PubChem BioAssay data set” (2004)
